These results are taken from US6727231B1, “Uridine therapy for patients with elevated purine levels” (Repligen Corporation, priority 2000, dated 2004).

Series [1] concerns Patient having increased uric acid in urine and diagnosed with symptoms of PDD. Put plainly: Treatment of Patient 1, who had increased uric acid in urine and was diagnosed with symptoms of PDD. The format is in vivo, human. Here is the method: Patient 1 was diagnosed with PDD. […], the patient's urine was analyzed, and the urine level of uric acid was 18.1 mg/kg/day. The normal level of uric acid in normal patients at age nine is 8.3+/−2.0 mg/kg/day. The uric acid level in the urine gradually declined to approximately normal levels, however the symptoms of PDD remained.
[…], Patient 1 was treated with a variety of drugs and exercise- and stress-reducing regimens. […] The exercise- and stress-reducing regimen helped in some respects, because Patient 1 was often fatigued. In addition, the low purine diet was continued at times along with vitamin B6 and magnesium. Over these many years, Patient 1 had varying levels of rather minor improvements in their symptoms in response to these and other attempted therapies.
Patient 1 began use of uridine, with an oral dosage of approximately 50 mg/kilogram of body weight per day. […] In particular, Patient 1 tried varying dosages of uridine up to 1000 mg/kg/day.

The next series deals with hyperuricosuric patients. The settings on record: some of these patients; cited from earlier work.
The conditions of series [2]: cited from earlier work.
The conditions of series [3]: cited from earlier work. This is another data set of the same source.
The test system of series [4] is hypouricosuric PDD patients. The settings on record: single oral doses of 1,000 mg/kg/day; cited from earlier work.
The mark [5] stands for this setting: Patient 1, oral uridine, comparative narrative data against no uridine.

Entries after “also recorded” stand apart in the source; their conditions may differ.

In the case of `C[C@H](N)Cc1ccccc1.C[C@H](N)Cc1ccccc1.O=S(=O)(O)O` [Dexedrine®, reference compound], the “Effect of earlier drug treatment on the patient's condition” value (shortened to “Effect of earlier drug treatment”) in series [1] (Patient) is “little success or worsening of their condition”.
For the compound `Oc1ncnc2[nH]ncc12` [allopurinol], the “Benefit in patients with hyperuricosuria” value with hyperuricosuric patients is reported as “benefited”.
Take `O=c1ccn([C@@H]2O[C@H](CO)[C@@H](O)[C@H]2O)c(=O)[nH]1` [uridine]: the “Adverse effect at higher dosages” value in series [2] (dosages higher than 1000 mg/kg/day, some patients) was “mild diarrhea”. The Toxic effects entry in series [2] (dosages of up to 1000 mg/kg/day, pure uridine) was “no known toxic effects”. Further, in series [3], the “Normal plasma concentration of uridine” value is 2 to 10 µM. Also, the “Effect on symptoms in hypouricosuric PDD patients” value in series [4] is listed as “reduce the symptoms”. For the same compound, in series [1] (Patient 1), the “Improvements upon cessation of uridine therapy” value was “declined or regressed”; the “Neurological and neuromuscular symptoms (autistic disorder and ataxia) upon administration” value is “improved dramatically”. Also, in series [1] (setting [5]), the “Fine motor skills with uridine” value is reported as “a. Able to use a screwdriver”; the “Gross motor skills with uridine” value was “d. Hugs normally-finds it easier; also recorded: e. Much less exhaustion and pain; also recorded: b. Does not crash into furniture,”; the “Speech and language with uridine” value is on record as “b. Very quick to understand jokes,; also recorded: e. Usually makes eye contact”. Besides, the “Benefit at this dosage of uridine” value in series [1] (Patient 1, oral, 150 mg/kg/day) is on record as “rapid benefits”. Further, the “Dosage dependence of improvements” value in series [1] (Patient 1, varying dosages up to 1000 mg/kg/day) is listed as “The higher dosages gave the most improved results”.
Take `O=C(CCCN1CCC(O)(c2ccc(Cl)cc2)CC1)c1ccc(F)cc1` [Haldol®, reference compound]: the “Effect of earlier drug treatment” value in series [1] (Patient 1, donor alpha) is “little success or worsening of their condition”.
Regarding `COC(=O)C(c1ccccc1)C1CCCCN1.Cl` (stereo not drawn) [Ritalin®, reference compound], in series [1] (Patient), the “Effect of earlier drug treatment” value was “little success or worsening of their condition”.
